From patent publication US20230356105A1, “TETRAAZADODECANE BASED CHELATING AGENTS FOR SEPARATION OF RARE EARTH ELEMENTS AND METHOD THEREFOR” (Ustav Organicke Chemie a Biochemie AV CR V.V.I., priority 2020, published 2023)
Values joined by “and” are separate entries in the source; they are usually repeats but may differ in a detail not shown here. Equal entries are not always repeated.

Legend:
Type in all cases: physicochemical
[1] = Separation of Ho/Er mixture by repeated precipitation using L1 (Example 11); conditions: for Precipitate concentration [mM] Ho: dissolved to 200 μL
Procedure: Stock solutions were pipetted into round-bottom 2 mL Eppendorf tubes as follows: • 1. 10 μL 100 mM aqueous solution of HoCl3 • 2. 10 μL 100 mM aqueous solution of ErCl3 • 3. 20 μL 100 mM aqueous solution of compound L1. • 4. 60 μL 2 M MOPS buffer pH=7. • 5. 140 μL water.
Nine identical reaction mixtures were prepared and split into three groups: A, B, C. Each tube was equipped with one PTFE-coated magnetic stir bar and sealed, and the mixture was stirred on a magnetic stirrer for 24 hours at room temperature. The tubes were then centrifuged and the supernatants were carefully pipetted out and transferred to a new set of tubes. Precipitates from group A were dissolved by addition of 200 μL 0.1 M HCl. The concentrations of Ho and Er in the supernatants and in the re-dissolved precipitates from group A were determined by ICP-OES. Precipitates from groups B and C were further processed as follows: the precipitates were dissolved by addition of 100 μL 0.1 M HCl, and the pH of the solutions were then raised from 1 to 7 by addition of an equimolar amount of 0.2 M NaOH. The total volume was adjusted to 200 μL by addition of water. The prepared mixtures were subjected to a second round of precipitation and were stirred on a magnetic stirrer for 24 hours at room temperature. The tubes were again centrifuged and the supernatants were carefully pipetted out and transferred to a new set of tubes. Samples from group B were treated identically to the samples from group A previously, and the Ho and Er content in the supernatants and precipitates were determined by ICP-OES. Precipitates from group C were subjected to a third cycle of precipitation followed by Ho and Er content determination analogously to the procedures described above. The resulting absolute concentrations of both metals in the supernatants and precipitates, as well as calculated values of the separation factor Er/Ho according to the formula (concentration of Er in supernatant/concentration of Er in precipitate)/(concentration of Ho in supernatant/concentration of Ho in precipitate), are summarized in Table 5.

[2] = Separation of Ho/Er mixture using L1 with repeated dissolution of the precipitate with heat (Example 12); conditions: for Precipitate concentration [mM] Ho: dissolved to 200 μL
Procedure: The experiment was conducted according to Example 11), the difference being that instead of dissolving the precipitate in acid and neutralizing by addition of base, 200 μL of water were added to the precipitate and the suspension was stirred at 80° C. for 24 hours. Full dissolution of the precipitate was not achieved during this process, but a saturated solution was formed. After cooling to room temperature, the mixtures were processed as though the precipitation had occurred normally. The resulting absolute concentrations of both metals in the supernatants and precipitates, as well as calculated values of the separation factor Er/Ho according to the formula from Example 11) are summarized in Table 6. […] Repetition of the cycles in this experiment also led to a higher degree of enrichment for one of the rare-earth elements. The average separation factor value was 2.97.

[3] = Separation of Pr from L5 by C18 column (Example 28)
Procedure: Stock solutions were pipetted into a 20 mL glass vial to prepare a reaction mixture as follows: • 1. 1.00 mL 100 mM aqueous solution of PrCl3 • 2. 0.60 mL 218 mM aqueous solution of L5
NaOH (2 M aqueous stock solution) was added by micropipette to titrate the reaction pH to 6. This reaction was stirred by the use of a PTFE-coated stir bar on a magnetic stirrer at room temperature for 30 minutes. The resulting suspension was transferred into two 2 mL plastic Eppendorf centrifuge tubes and centrifuged. The supernatant was set aside and analysed by HPLC, and the precipitate was dissolved by addition of 0.15 mL 1 M HCl to each Eppendorf tube. These dissolved solutions were combined and titrated to pH 2 by addition of 2 M NaOH.
The L5 and Pr present in the acidic solution were separated by reverse-phase chromatography, using 1.01 g fully-endcapped C18 silica gel in a plastic SPE cartridge (2 cm diameter). After conditioning the reversed phase with MeCN and MeCN/H20 solutions, 1 mL of H2O was run through the column before loading the L5-Pr solution onto the column. MeCN/H20 solutions were used to elute the components from the column: 2 mL 0% MeCN, 4 mL 10% MeCN, 4 mL 25% MeCN, and 4 mL 50% MeCN. The eluted solutions were collected as seven 2 mL fractions. All fractions were analysed by HPLC-MS to determine L5 content. The first two fractions were also analysed by ICP-OES to determine Pr content.
The distribution of L5 and Pr in the fractions is shown in Table 21, where the quantity of each component present in each fraction is provided as a fraction of the total quantity of the component found in the sum of the fractions, as well as the measured content of Pr (in mM) and L5 (as the integrations of the chromatographic peak areas at 280 nm) found in each fraction.

[4] = group A, 1st precipitation, mean

Compound: O=C(O)CN1CCN(CC(=O)O)CCN(Cc2ccccc2)CCN(CC(=O)O)CC1 [L1, 2,2′,2″-(10-benzyl-1,4,7,10-tetraazacyclododecane-1,4,7-triyl)triacetic Acid]
- average of the separation factor values Er/Ho ([1]; all Er/Ho mixtures): 2.73
- Separation factor Er/Ho ([1]; group A, 1st precipitation): 2.30 and 2.59 and 2.55
- Supernatant concentration [mM] Ho ([1]; group A, 1st precipitation): 0.44 mM and 0.40 mM and 0.46 mM
- Precipitate concentration [mM] Ho ([1]; group A, 1st precipitation): 4.72 mM and 4.31 mM and 4.29 mM
- Precipitate concentration [mM] Ho [1, 4]: 4.44 mM
- Supernatant concentration [mM] Ho [1, 4]: 0.43 mM
- Separation factor Er/Ho ([1]; group B, 2nd precipitation): 3.10 and 2.68 and 3.02
- Supernatant concentration [mM] Ho ([1]; group B, 2nd precipitation): 0.58 mM and 0.51 mM and 0.44 mM
- Precipitate concentration [mM] Ho ([1]; group B, 2nd precipitation): 4.07 mM and 4.24 mM and 4.20 mM
- Precipitate concentration [mM] Ho ([1]; group B, 2nd precipitation, mean): 4.17 mM
- Separation factor Er/Ho ([1]; group C, 3rd precipitation): 2.97 and 2.30 and 3.06
- Precipitate concentration [mM] Ho ([1]; group C, 3rd precipitation): 3.23 mM and 2.65 mM
- Precipitate concentration [mM] Ho ([1]; group C, 3rd precipitation, mean): 3.04 mM
- average separation factor value Er/Ho ([2]; all samples): 2.97
- Separation factor Er/Ho ([2]; group A, 1st cycle): 2.89 and 2.84 and 3.04
- Supernatant concentration [mM] Ho ([2]; group A, 1st cycle): 0.36 mM and 0.33 mM
- Precipitate concentration [mM] Ho ([2]; group A, 1st cycle): 4.53 mM and 4.46 mM and 4.68 mM
- Precipitate concentration [mM] Ho ([2]; group A, 1st cycle, mean): 4.56 mM
- Supernatant concentration [mM] Ho ([2]; group A, 1st cycle, mean): 0.35 mM
- Separation factor Er/Ho ([2]; group B, 2nd cycle): 2.69 and 2.94 and 3.69
- Supernatant concentration [mM] Ho ([2]; group B, 2nd cycle (water, 80° C., 24 hours)): 0.27 mM and 0.32 mM and 0.25 mM
- Supernatant concentration [mM] Ho ([2]; group B, 2nd cycle (water, 80° C., 24 hours), mean): 0.28 mM
- Precipitate concentration [mM] Ho ([2]; group B, 2nd cycle): 3.89 mM and 3.98 mM and 3.64 mM
- Precipitate concentration [mM] Ho ([2]; group B, 2nd cycle, mean): 3.84 mM
- Separation factor Er/Ho ([2]; group C, 3rd cycle): 2.38 and 2.79 and 3.47
- Supernatant concentration [mM] Ho ([2]; group C, 3rd cycle (water, 80° C., 24 hours)): 0.39 mM and 0.37 mM and 0.27 mM
- Supernatant concentration [mM] Ho ([2]; group C, 3rd cycle (water, 80° C., 24 hours), mean): 0.34 mM
- Precipitate concentration [mM] Ho ([2]; group C, 3rd cycle): 3.16 mM and 3.13 mM and 3.75 mM
- Precipitate concentration [mM] Ho ([2]; group C, 3rd cycle, mean): 3.35 mM

Compound: O=C(O)CN1CCN(CC(=O)O)CCN(Cc2cccc3ccccc23)CCN(CC(=O)O)CC1 [L5, 2,2′,2″-(10-(naphthalene-1-ylmethyl)-1,4,7,10-tetraazacyklododekane-1,4,7-triyl)triacetic acid]
- % distribution in fractions L5 ([3]; fraction 1 (0% MeCN)): 0.0%
- % distribution in fractions Pr ([3]; fraction 1 (0% MeCN)): 87%
- measured content of fraction L5 peak area (280 nm) ([3]; fraction 1 (0% MeCN)): 0 AU
- measured content of fraction Pr ([3]; fraction 1 (0% MeCN)): 18.95 mM
- % distribution in fractions L5 ([3]; fraction 2 (10% MeCN)): 0.1%
- % distribution in fractions Pr ([3]; fraction 2 (10% MeCN)): 13%
- measured content of fraction L5 peak area (280 nm) ([3]; fraction 2 (10% MeCN)): 3 AU
- measured content of fraction Pr ([3]; fraction 2 (10% MeCN)): 2.82 mM
- % distribution in fractions L5 ([3]; fraction 3 (10% MeCN)): 56.8%
- measured content of fraction L5 peak area (280 nm) ([3]; fraction 3 (10% MeCN)): 2258 AU
- % distribution in fractions L5 ([3]; fraction 4 (25% MeCN)): 34.8%
- measured content of fraction L5 peak area (280 nm) ([3]; fraction 4 (25% MeCN)): 1382 AU
- % distribution in fractions L5 ([3]; fraction 5 (25% MeCN)): 8.1%
- measured content of fraction L5 peak area (280 nm) ([3]; fraction 5 (25% MeCN)): 324 AU
- % distribution in fractions L5 ([3]; fraction 6 (50% MeCN)): 0.1%
- measured content of fraction L5 peak area (280 nm) ([3]; fraction 6 (50% MeCN)): 5 AU
- % distribution in fractions L5 ([3]; fraction 7 (50% MeCN)): 0.1%
- measured content of fraction L5 peak area (280 nm) ([3]; fraction 7 (50% MeCN)): 3 AU
